Several values for one entry are separate records, joined by “and”; a condition that tells them apart may be missing. Equal entries are not always repeated. Where two headings read alike, the source gives them in different places.
Legend:
[1] = system: immature embryos of wheat; assay: Agrobacterium-mediated wheat transformation, nptII (G418/kanamycin) selection (transformation efficiency); format: cell-based, Triticum aestivum L
Source text: (§1) Immature embryos of wheat (Triticum aestivum L) cv Bobwhite were isolated from the immature caryopsis (wheat spikelets) 12-15 days after pollination, and cultured on CM4C (Table 2) for 1-8 days, most typically for 4-6. The embryos without embryogenic callus were selected for Agrobacterium inoculation.
A disarmed Agrobacterium strain C58 (ABI) harboring a binary vector was used for all the experiments. […] The Agrobacterium cells were resuspended in the inoculation medium and the density was adjusted to an OD660 of 1. […] An equal amount of the Agrobacterium cell suspension was added such that the final concentration of Agrobacterium cells was an OD660 of 0.5. In most experiments, pluronic F68 was added to the inoculation mixture at a final concentration of 0.01%. The ratio between the Agrobacterium and immature embryos (IEs) was about 10 mL: 20-200 IEs. The conditions for inoculation were temperatures from about 23° C.-26° C. with a duration from about 5-60 minutes.
(§2) After the inoculation period, the remaining Agrobacterium cells were removed from the explants by using the in-house vacuum equipment. A piece of sterile Whatman No. 1 filter paper (to fit the size of the petri plate) was placed in each of 60×15 or 60×20 mm petri dishes without additional liquid or agar-supplemented media. Two hundred microliters of sterile water was placed in the middle of the filter paper. After 2-3 minutes, the inoculated immature embryos were placed in the plates. Usually, 20-50 explants are grouped as one stack (about 1 cm in size and 60-80 mg/stack), with 4-5 stacks on each plate. The plates were immediately parafilmed and then co-cultivated in the dark at 24° C.-26° C. for 2-3 days.
For nptII selection, immature embryos were isolated, precultured, inoculated, and co-cultured as previously described. After the 3-day co-culture, embryos were transferred to delay culture (solid CM4C2D) media (CM4C media as in Table 2 with 2 mg/L 2,4-D) with 500 mg/L carbenicillin for 7 days in the dark at 25° C. Selection was done in liquid CM4C media (as in Table 2 without the Phytagel) with 100 mg/L carbenicillin and 20 mg/L G418 on a support for 7 days in the dark followed by 7 days in the light (16 hr photoperiod), at 25° C. The calli were then transferred to liquid MMS0.2C media (as in Table 2 without the gelling agent) with 100 mg/L carbenicillin and 25 mg/L G418 on a support for 2 weeks at 25° C. with a 16 hr photoperiod. After 2 weeks, the calli were transferred to liquid MMSOC media (as in Table 2 without the gelling agent) with 100 mg/L carbenicillin and 25 mg/L G418 on a support for 2 to 4 weeks at 25° C. with a 16 hr photoperiod. Plantlets were transferred to solid MMSOC media with 100 mg/L carbenicillin and 25 mg/L G418 in sundae cups for 1 to 4 weeks at 25° C. with a 16 hr photoperiod.

[2] = system: immature embryos of wheat (Triticum aestivum L) cv Bobwhite; assay: Agrobacterium-mediated wheat transformation, glyphosate selection (transformation efficiency); format: cell-based
[3] = system: immature embryos of wheat (Triticum aestivum L) cv Bobwhite; assay: as above; format: cell-based; remark: listed apart in the source
Source text: as §1
A disarmed Agrobacterium strain C58 (ABI) harboring a binary vector was used for all the experiments. For the control experiments, cultures of Agrobacterium were initiated from glycerol stocks or from a freshly streaked plate and grown overnight at 26° C.-28° C. with shaking (approximately 150 rpm) to mid-log phase (about OD660=1-1.5) in liquid LB medium, pH 7.0 (Miller, 1972) containing 50 mg/L kanamycin, 50 mg/L streptomycin and spectinomycin, and 25 mg/L chloramphenicol with 200 μM acetosyringone (AS). The Agrobacterium cells were resuspended in the inoculation medium and the density was adjusted to an OD660 of 1. The immature embryos cultured in CM4C medium were transferred into sterile petri plates (16×20 mm) or wells of a 6-well cell culture plate (Costar Corporation, Cambridge, Mass.) containing 10 mL of inoculation medium per petri plate or 5 mL per cell culture cluster plate. An equal amount of the Agrobacterium cell suspension was added such that the final concentration of Agrobacterium cells was an OD660 of 0.5. In most experiments, pluronic F68 was added to the inoculation mixture at a final concentration of 0.01%. The ratio between the Agrobacterium and immature embryos (IEs) was about 10 mL: 20-200 IEs. The conditions for inoculation were temperatures from about 23° C.-26° C. with a duration from about 5-60 minutes.
as §2
After a 3-day co-cultivation, the Agrobacterium-infected precultured immature embryos (PCIE) and embryogenic calli were transferred to CM4C medium (Table 2) supplemented with 500 mg/L carbenicillin and cultured for about seven days. This “delay” medium could also contain glyphosate as discussed in Example 4.
The explants were then transferred to CM4C selection medium with 2 mM glyphosate and 500 mg/L carbenicillin for one week in the dark. All the calli were transferred to MMS0.2C (Table 2) supplemented with 0.1 mM glyphosate and 250 mg/L carbenicillin (first regeneration medium) for an additional two weeks of selection with lighting conditions of about 80 μE. […] All the embryogenic calli were transferred to the second regeneration medium MMS0C (Table 2) supplemented with 500 mg/L carbenicillin and 0.02 mM glyphosate. Aromatic amino acids including I-tryptophan, L-tyrosine, and I-phenylalanine (10^−7 mM/amino acid) were added to this medium to facilitate the selection. These tissues were transferred to fresh media every two weeks. […] Once the root system was established, the plants were transferred to soil and subsequently assayed. […]

[4] = Table 19: compound at 20 μM in second regeneration stage (MMSOC media)
[5] = Table 19 compounds at the concentrations tested (2 and/or 20 μM) in MMSOC
[6] = Table 19: compound at 2 μM in second regeneration stage (MMSOC media)

In the case of `O=S(=O)([O-])[O-].[Mn+2]` [Manganese sulfate], the “% TE” value [1, 4] is reported as 4.2%, the Independent transgenic events/explants [1, 4] is reported as 8/189 and the “effectiveness at increasing TE” value [1, 5] is reported as “not effective”.
For Copper acetate, the “% TE” value [1] was 23.0% and the Independent transgenic events/explants [1] was 53/230.
`[Cl-].[Cl-].[Mg+2]` [Magnesium chloride] was tested, and the “% TE” value [1] was 3.0%, the Independent transgenic events/explants [1] was 7/231 and the “effectiveness at increasing TE” value [1] was “not effective”.
In the case of `[Cl][Co][Cl]` [Cobalt chloride], the “% TE” value [1, 4] is reported as 9.2%, the Independent transgenic events/explants [1, 4] is reported as 19/207 and the “effectiveness at increasing TE” value [1, 5] is reported as “more effective than the negative control”.
`[Cl][Cu][Cl]` [Copper chloride] was tested, and the “% TE” value [1, 6] was 16.8%, the Independent transgenic events/explants [1, 6] was 37/220 and the “% TE” value [1, 4] was 24.2%. For the same compound, the Independent transgenic events/explants [1, 4] was 55/227.
With `O=S(=O)([O-])[O-].[Zn+2]` [Zinc sulfate] the Independent transgenic events/explants [1] was 12/219 and 17/107, the “effectiveness at increasing TE” value [1] was “not effective” and the “% TE” value [1, 6] was 5.5%. The “% TE” value [1, 4] was 15.9%.
For `O=C(O)CNCP(=O)(O)O` [glyphosate], the Efficiency % ([2]; 0.5 mM gly in MMS0.2C first regeneration medium, per experiment and Total, listed as gly) was 1.5% and 7.9% and 2.8% and 3.7% and 3.0%, the Efficiency % ([2]; 1.0 mM gly in MMS0.2C first regeneration medium, per experiment and Total, listed as gly) was 5.0% and 5.3% and 4.2% and 2.5% and the Efficiency % ([2]; Table 9b treatment 2: MMS0.2C + 0.5 Gly, two experiments and Total, listed as Gly) was 7.7% and 10.7% and 13.7%. The TE % ([2]; selection 10 days in CM4C + 2 mM glyphosate, per experiment and Total) was 8.6% and 1.25% and 6.4% and 4.8% and 7.3% and 5.3%, the TE % ([3]; 0.02 mM glyphosate in preculture and delay culture media (CM4C), per experiment and Total, listed as gly) was 3.7% and 3.8% and 4.9% and 8.3% and 2.4% and the Efficiency % ([3]; 0.1 mM gly in MMS0.2C first regeneration medium, per experiment and Total, listed as gly) was 4.7% and 1.6% and 2.3% and 0.0% and 2.9%. The Efficiency % ([3]; Table 9b treatment 1: MMS0.2C + 0.1 Gly, two experiments and Total, listed as Gly) was 4.8% and 6.8% and 8.9%, the “transformation efficiency” value ([3]; glyphosate at 0.02 mM in preculture and delay culture media) was “significantly improved” and the TE % ([3]; selection 7 days in CM4C + 2 mM glyphosate, per experiment and Total) was 5.2% and 1.5% and 4.4% and 3.1% and 4% and 2.2%.
